From ChEMBL document CHEMBL1201862, “PubChem BioAssay data set” (2004)
The source made the active and inactive calls.

What was measured:
[1] = Luminescence Cell-Based Dose Response HTS to Identify Activators of Luciferase Translation or Activity in H4 […] Cells. [Related pubchem assays: 1829 (Project Summary), 1814 (Primary HTS)]; type: functional
[2] = tested on: H4; test: Luminescence Cell-Based Dose Response HTS to Identify Activators of 5'UTR Stem-Loop Driven Prion Protein mRNA Translation in H4 Neuroglioblastoma Cells. [Related pubchem assays: 1829 (Project Summary), 1814 (Primary HTS)]; type: functional; details: Homo sapiens
[3] = THP-1 cell cytotoxicity, dose response, cytotoxicity control for non-replicating M. tuberculosis project (AID 489025); type: functional
[4] = target: T1, DNA repair protein RAD52 homolog (Homo sapiens, UniProt P43351); type: functional, biochemical
T1 sequence (P43351 whole entry): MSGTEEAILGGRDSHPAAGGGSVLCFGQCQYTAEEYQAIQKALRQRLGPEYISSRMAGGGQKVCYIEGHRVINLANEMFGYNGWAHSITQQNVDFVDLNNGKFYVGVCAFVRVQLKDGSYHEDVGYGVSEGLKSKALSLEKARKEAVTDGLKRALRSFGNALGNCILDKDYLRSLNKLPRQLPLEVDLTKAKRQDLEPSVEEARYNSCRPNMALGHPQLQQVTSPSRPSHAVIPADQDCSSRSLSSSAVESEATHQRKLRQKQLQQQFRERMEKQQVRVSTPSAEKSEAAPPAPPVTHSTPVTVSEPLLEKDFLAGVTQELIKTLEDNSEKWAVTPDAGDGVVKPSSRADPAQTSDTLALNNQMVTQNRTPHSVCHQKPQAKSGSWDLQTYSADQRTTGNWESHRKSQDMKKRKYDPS

[5] = target: Glyceraldehyde-3-phosphate dehydrogenase (Homo sapiens, UniProt P04406)
Chain of Glyceraldehyde-3-phosphate dehydrogenase (P04406 whole entry): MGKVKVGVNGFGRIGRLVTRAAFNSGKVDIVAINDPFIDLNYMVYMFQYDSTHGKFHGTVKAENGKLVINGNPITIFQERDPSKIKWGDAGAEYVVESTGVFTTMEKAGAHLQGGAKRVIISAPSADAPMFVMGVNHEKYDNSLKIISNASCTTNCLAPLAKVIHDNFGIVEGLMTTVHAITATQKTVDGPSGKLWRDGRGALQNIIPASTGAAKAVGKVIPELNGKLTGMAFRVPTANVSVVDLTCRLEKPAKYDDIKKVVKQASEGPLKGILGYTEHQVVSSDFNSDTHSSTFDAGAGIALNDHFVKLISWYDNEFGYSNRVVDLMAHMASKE

[6] = target: T2, Calpain-2 catalytic subunit (Sus scrofa, UniProt P43367); test: pig calpain II inhibitor potency, dose response, biochemical, fluorogenic peptide substrate (AID 1420); type: functional
T2 sequence (P43367 whole entry): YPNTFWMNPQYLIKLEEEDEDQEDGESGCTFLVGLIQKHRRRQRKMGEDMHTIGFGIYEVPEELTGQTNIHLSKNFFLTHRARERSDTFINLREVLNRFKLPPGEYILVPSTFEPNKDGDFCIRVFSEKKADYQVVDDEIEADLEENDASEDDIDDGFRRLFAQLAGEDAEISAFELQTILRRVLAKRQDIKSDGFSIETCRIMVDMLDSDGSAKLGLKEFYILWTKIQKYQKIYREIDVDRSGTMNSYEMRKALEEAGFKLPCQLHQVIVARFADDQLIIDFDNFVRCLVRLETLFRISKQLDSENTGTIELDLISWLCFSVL

[7] = target: T3, Heat shock factor protein 1 (Mus musculus, UniProt P38532); test: inhibition of MG132-induced HSE-luciferase signal, confirmation, cell-based, NIH3T3, luminescence, dose retest (AID 2382); type: functional;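 further: NIH3T3 fibroblasts with HSF1-driven luciferase reporter stressed by proteasome inhibitor MG132; luminescence from HSF1-driven luciferase expression after 8 hours of MG132 stress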
T3 sequence (P38532 whole entry): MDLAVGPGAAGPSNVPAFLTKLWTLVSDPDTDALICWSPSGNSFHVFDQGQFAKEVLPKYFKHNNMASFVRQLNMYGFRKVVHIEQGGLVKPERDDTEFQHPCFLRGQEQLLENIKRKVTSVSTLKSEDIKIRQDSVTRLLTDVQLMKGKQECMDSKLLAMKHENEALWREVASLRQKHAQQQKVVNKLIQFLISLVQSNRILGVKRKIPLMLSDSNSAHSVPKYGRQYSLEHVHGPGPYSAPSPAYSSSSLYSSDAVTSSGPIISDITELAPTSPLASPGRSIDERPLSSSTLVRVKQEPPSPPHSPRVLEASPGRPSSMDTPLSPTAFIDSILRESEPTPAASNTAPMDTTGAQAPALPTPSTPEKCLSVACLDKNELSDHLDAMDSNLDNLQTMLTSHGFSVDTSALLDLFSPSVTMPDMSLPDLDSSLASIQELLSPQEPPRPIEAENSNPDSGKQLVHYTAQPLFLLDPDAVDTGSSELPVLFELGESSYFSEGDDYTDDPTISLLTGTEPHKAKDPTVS

[8] = target: Eukaryotic translation initiation factor 4E (Mus musculus, UniProt P63073); test: eIF4E–eIF4G protein interaction inhibitors, dose response, biochemical, TR-FRET (AID 855); type: functional;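 further: potency for disrupting eIF4E binding to eIF4GI seen as loss of FRET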
Chain of Eukaryotic translation initiation factor 4E (P63073 whole entry): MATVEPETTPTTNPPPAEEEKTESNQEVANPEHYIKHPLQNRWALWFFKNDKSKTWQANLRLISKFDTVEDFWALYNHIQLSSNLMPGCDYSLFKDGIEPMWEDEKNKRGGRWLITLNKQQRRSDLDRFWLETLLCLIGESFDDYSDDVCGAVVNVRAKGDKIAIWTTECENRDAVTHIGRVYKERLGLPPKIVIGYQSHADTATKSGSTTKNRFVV

[9] = target: Estrogen receptor beta (Homo sapiens, UniProt Q92731);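 further: recombinant ER-beta bound to coactivator SRC1 peptide in presence of estradiol agonist; inhibitors block coactivator peptide binding and lower the FRET signal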
Chain of Estrogen receptor beta (Q92731 whole entry): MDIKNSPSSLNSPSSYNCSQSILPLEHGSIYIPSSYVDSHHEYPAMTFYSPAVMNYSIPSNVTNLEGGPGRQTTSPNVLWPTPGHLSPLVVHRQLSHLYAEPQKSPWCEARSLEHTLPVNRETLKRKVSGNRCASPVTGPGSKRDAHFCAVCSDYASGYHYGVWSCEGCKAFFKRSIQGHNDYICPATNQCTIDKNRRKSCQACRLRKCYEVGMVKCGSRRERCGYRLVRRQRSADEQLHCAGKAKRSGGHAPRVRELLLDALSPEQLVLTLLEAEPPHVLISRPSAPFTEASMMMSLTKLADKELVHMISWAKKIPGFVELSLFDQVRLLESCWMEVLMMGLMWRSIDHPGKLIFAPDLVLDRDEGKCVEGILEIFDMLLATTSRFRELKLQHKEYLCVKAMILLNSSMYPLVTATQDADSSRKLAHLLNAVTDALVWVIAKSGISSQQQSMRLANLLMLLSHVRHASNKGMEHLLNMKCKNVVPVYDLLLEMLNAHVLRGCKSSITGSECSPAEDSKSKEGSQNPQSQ

[10] = tested on: BJ; test: cytotoxicity toward BJ-TERT fibroblasts, dose response, cell-based, RAS-independent, luminescence (AID 1933); type: functional; details: Homo sapiens
[11] = tested on: BJ; test: cells; type: functional, cell-based; details: Homo sapiens
[12] = growth suppression of PTEN-null colon cells, dose response, cell-based, HCT116 PTEN knockout (AID 1047); type: functional;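 further: HCT116 colon tumor cells with PTEN knocked out; cells exposed to compound for 60 hours before readout; potency for loss of cell viability measured by luminescence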
[13] = growth suppression of beta-catenin-knockout colon cells, dose response, cell-based, HCT116, human colon tumor (AID 1045); type: functional;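 further: HCT116 colon tumor cells with beta catenin knocked out; cells exposed to compound for 60 hours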
[14] = tested on: BJ; test: cytotoxicity toward BJ-TERT-LT-ST fibroblasts, dose response, cell-based, RAS-independent, luminescence (AID 1935); type: functional; details: Homo sapiens;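 further: BJ fibroblasts immortalized with TERT plus LT and ST oncogenes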
[15] = cytotoxicity toward DRD oncogenic fibroblasts, dose response, cell-based, non-viral oncogenic, luminescence (AID 1934); type: functional; details: Homo sapiens
[16] = target: T4, Short transient receptor potential channel 4 (Mus musculus, UniProt Q9QUQ5); test: mouse TRPC4 channel activators, dose response, cell-based, HEK293 TRPC4/mu-opioid, Fluo-4 calcium (AID 434937); type: functional
T4 sequence (Q9QUQ5 whole entry): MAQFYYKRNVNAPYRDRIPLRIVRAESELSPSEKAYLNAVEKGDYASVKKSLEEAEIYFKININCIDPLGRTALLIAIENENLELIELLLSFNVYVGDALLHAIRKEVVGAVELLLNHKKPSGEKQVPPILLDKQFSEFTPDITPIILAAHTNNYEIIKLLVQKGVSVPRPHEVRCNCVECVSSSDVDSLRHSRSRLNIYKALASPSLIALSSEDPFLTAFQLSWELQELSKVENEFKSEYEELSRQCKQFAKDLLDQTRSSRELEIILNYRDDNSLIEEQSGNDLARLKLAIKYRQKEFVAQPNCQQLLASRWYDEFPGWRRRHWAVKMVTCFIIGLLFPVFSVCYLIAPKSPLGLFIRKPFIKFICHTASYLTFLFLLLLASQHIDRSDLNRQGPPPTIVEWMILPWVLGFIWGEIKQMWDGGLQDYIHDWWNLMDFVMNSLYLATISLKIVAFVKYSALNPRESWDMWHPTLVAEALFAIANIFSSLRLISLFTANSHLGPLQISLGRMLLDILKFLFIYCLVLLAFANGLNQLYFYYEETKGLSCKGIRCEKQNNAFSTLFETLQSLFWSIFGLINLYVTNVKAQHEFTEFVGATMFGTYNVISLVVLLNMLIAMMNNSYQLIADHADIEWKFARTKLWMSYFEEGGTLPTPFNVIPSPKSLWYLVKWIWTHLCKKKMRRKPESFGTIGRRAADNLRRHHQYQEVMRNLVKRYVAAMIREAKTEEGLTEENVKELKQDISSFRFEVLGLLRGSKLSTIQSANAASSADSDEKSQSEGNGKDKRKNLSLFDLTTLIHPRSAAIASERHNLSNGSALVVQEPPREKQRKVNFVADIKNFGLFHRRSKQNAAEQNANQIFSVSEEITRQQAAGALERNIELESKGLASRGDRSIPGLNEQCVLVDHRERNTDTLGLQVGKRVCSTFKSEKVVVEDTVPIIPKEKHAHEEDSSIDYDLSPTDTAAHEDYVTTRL

[17] = target: T5, DNA repair and recombination protein RAD54-like (Homo sapiens, UniProt Q92698); test: inhibitors of human RAD54 branch migration, confirmation, biochemical, fluorescence, cherry-picked samples, dose series (AID 651657); type: functional
T5 sequence (Q92698 whole entry): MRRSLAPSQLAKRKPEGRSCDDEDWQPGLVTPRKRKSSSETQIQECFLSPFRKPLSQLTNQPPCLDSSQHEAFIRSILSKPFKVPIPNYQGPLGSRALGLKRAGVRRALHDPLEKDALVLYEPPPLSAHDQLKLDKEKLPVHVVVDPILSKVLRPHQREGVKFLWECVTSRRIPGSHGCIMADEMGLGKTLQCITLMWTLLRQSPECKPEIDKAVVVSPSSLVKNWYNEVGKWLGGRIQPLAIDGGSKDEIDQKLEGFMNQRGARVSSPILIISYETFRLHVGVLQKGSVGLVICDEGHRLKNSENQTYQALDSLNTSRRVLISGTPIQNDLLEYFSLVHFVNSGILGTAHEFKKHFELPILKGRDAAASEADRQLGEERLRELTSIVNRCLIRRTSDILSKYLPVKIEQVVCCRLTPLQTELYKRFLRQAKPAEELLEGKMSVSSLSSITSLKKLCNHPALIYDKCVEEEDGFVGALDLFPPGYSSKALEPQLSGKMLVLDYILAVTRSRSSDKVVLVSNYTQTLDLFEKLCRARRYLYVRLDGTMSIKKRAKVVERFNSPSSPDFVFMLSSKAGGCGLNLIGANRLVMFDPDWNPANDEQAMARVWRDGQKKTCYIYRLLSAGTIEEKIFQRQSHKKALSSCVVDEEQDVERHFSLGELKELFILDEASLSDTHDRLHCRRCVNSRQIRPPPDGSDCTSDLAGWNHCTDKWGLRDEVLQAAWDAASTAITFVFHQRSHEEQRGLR

[18] = target: T6, Rac GTPase-activating protein 1 (Homo sapiens, UniProt Q9H0H5); test: MgcRacGAP GTPase-activating activity inhibitors, confirmation, biochemical, ADP Hunter fluorescence, primary and confirmatory (AID 624330); type: functional
T6 sequence (Q9H0H5 whole entry): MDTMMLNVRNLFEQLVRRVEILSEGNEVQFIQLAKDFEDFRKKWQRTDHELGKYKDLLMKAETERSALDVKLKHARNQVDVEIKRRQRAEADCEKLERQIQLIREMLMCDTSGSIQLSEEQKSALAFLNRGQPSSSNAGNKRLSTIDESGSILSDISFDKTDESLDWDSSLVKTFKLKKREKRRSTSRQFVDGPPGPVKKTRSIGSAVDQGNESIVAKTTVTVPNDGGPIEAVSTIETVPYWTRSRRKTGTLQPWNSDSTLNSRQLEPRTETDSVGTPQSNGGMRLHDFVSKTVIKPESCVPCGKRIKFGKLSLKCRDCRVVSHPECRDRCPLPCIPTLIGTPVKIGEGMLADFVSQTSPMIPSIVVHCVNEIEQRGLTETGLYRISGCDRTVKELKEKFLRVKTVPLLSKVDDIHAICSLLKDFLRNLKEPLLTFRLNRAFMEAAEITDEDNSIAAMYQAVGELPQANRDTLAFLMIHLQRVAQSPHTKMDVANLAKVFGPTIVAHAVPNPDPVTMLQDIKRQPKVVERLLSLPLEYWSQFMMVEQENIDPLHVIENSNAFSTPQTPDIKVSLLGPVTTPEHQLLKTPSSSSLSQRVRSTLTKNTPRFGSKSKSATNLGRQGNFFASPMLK

[19] = target: T7, Ubiquitin-conjugating enzyme E2 N (Homo sapiens, UniProt P61088); type: functional;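 further: Dose-response confirmation in a TR-FRET assay detecting UBC13-driven polyubiquitin chain formation, inhibition measured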
T7 sequence (P61088 whole entry): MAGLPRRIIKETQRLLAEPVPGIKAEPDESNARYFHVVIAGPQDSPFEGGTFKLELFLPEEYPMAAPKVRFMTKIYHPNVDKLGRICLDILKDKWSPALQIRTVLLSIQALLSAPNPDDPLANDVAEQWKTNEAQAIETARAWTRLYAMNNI

[20] = intracellular Trypanosoma cruzi inhibitors in host cells – cell-based, plate reader, cherry-pick samples, set 3, dose response (AID 651818); type: functional;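 further: compounds incubated with infected cells for about four days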

O=C(CCC1CCCC1)Nc1ccc(Br)cn1
EC50 [1]: 805 nM (active)
EC50 [2]: > 120 µM (not active)
CC50 [3]: > 40 µM (active)

CN(C)CCCN=C(S)N(CCN(C)C)Cc1cc2cc3c(cc2nc1O)OCCO3
AC50 [4]: 5.91 µM (active)

O=C(CCC1CCCC1)Nc1nnc[nH]1
IC50 [5]: > 10 µM (inconclusive)

CC(C)Cc1ccc(C(C)C(=O)OCC(=O)c2c[nH]c3ccccc23)cc1 (configuration not stated)
IC50 [6]: 6.65 µM (not active)

Cn1c2c(c(=O)n(C)c1=O)C(CC(=O)Nc1ccccc1)C(=O)N2 (configuration not stated)
EC50 [7]: > 195 µM (not active)
IC50 [6]: 2.62 µM (not active)

Cn1c(N)c(C(=O)COC(=O)CC2CC3CCC2C3)c(=O)n(C)c1=O (configuration not stated)
IC50 [6]: 2.16 µM (active)

COc1ccc(C(C)=O)c2c(O)cccc12
IC50 [6]: 0.917 µM (not active)

Clc1ccc(OCCCn2cncn2)cc1Cl
IC50 [8]: > 64 µM (inactive)

Oc1cc2c(cc1C(c1ccc(Br)cc1)N1CCCC1)OCO2 (configuration not stated)
IC50 [8]: 50 µM (inactive)

Cc1n[nH]c(C)c1S(=O)(=O)N(CC(=O)N1CCc2ccccc21)c1ccc(C(C)C)cc1
IC50 [9]: > 50 µM (not active)

CCN(CC)CCCNC(=O)c1cc2c(-c3ccc(Cl)cc3)nn(C)c2s1
EC50 [10]: 9.1 µM (active)
EC50 [11]: 21.8 µM (active)
EC50 [12]: 5.12 µM (active)
EC50 [13]: 4.29 µM (active)
EC50 [14]: 12.1 µM (inconclusive)
EC50 [15]: 10.4 µM (active)
EC50 [16]: 335 nM (active)
AC50 [17]: 35.9 µM (active)

Cc1ccc(C)c(SCC(=O)NC(=O)Nc2ccc3c(c2)OCCO3)c1
IC50 [6]: < 0.4 µM (not active)

COc1ccccc1CN1CCN(C(=O)c2ccncc2)CC1
IC50 [8]: > 64 µM (inactive)
IC50 [18]: 120 µM (active)

CCC[C@@H](CN1CCC[C@H]1CN1C(N)=NC[C@H]1CC(C)C)N1C[C@@H]([C@H](C)CC)N(CCc2ccc(Cl)c(Cl)c2)C1=N
IC50 [19]: > 20 µM (inactive)
AC50 [4]: 12.4 µM (active)

CC(=O)Nc1cc(-c2cccc(C(=O)NCCN(C)C)c2)cn2c(-c3ccc(S(C)(=O)=O)cc3)cnc12
AC50 [17]: 25.8 µM (active)
AC50 [4]: 2.7 µM (active)

Cc1nc2nc(C)c(C)nc2nc1C
AC50 [17]: 34.7 µM (active)

C[C@@H]1CCCCO[C@@H](CN(C)Cc2ccc(Cl)c(Cl)c2)[C@@H](C)CN([C@H](C)CO)C(=O)c2cc(NC(=O)Nc3ccc4c(c3)OCO4)ccc2O1
AC50 [20]: 3.68 µM (active)

COc1ccc(-c2nc(C(=O)NCCCN3CCOCC3)cc3c2[nH]c2ccccc23)cc1OC
AC50 [17]: 13.7 µM (active)
AC50 [4]: 4.84 µM (active)
